{"source": "patent US4874856A", "about": "“3-(substituted)propenyl-7-(aminothiazolylacetamido) ceph-3-em-4-carboxylic acids and esters thereof” (Bristol-Myers Company, priority 1987, dated 1989)", "assay_type_in_all_cases": "cell-based", "key": {"[1]": {"tested_on": "PCresistant S. aureus", "assay": "In vitro MIC, two-fold serial agar dilution in Mueller-Hinton agar, GpIb strains", "conditions": "Staphylococcus aureus, 5 strains, read-out: Geometric mean of MIC, GpIb", "description": "The in vitro antibacterial activity of the parent cephalosporanic acids of Formula I wherein R^4 is hydrogen is shown in Table 1 in terms of geometric mean of the Minimum Inhibitory Concentrations (MIC's) which were determined by the two-fold serial agar dilution method in Mueller-Hinton agar against 25 strains of test organisms in five groups.\nGpIb: PCresistant S. aureus"}, "[2]": {"tested_on": "Citrobacter freundii", "assay": "In vitro MIC, Mueller-Hinton agar, inoculum 10^6 cells/ml", "from_the_text": "(§1) Table 6 is a comparison of the in vitro antibacterial activities of Compound 29 and the vinyl homolog thereof FK-482 against clinically important pathogens. Thirty-seven organisms were more than 4-fold more susceptible to Compound 29 than to FK-482. FK-482 has the following formula and is described by Takaya, et al. in U.S. Pat. No. 4,559,334 patented Dec. 17, 1985 (filed Oct. 20, 1983). [drawing 14]\n(§2) *; Geometric mean of MIC (μg/ml)\n(§3) Mueller-Hinton agar Inoculum size; 10^6 cells/ml"}, "[3]": {"tested_on": "Morganella morganii", "assay": "In vitro MIC, Mueller-Hinton agar, inoculum 10^6 cells/ml", "from_the_text": "as §1, §2, §3"}, "[4]": {"tested_on": "Enterobacter aerogenes", "assay": "In vitro MIC, Mueller-Hinton agar, inoculum 10^6 cells/ml", "conditions": "Klebsiella aerogenes", "from_the_text": "as §1, §2, §3"}, "[5]": {"tested_on": "Enterobacter cloacae", "assay": "In vitro MIC, Mueller-Hinton agar, inoculum 10^6 cells/ml", "from_the_text": "as §1, §2, §3"}, "[6]": {"tested_on": "Serratia species", "assay": "In vitro MIC, Mueller-Hinton agar, inoculum 10^6 cells/ml", "from_the_text": "as §1, §2, §3"}}, "note": "Where two headings read alike, the source gives them in different places."}
{"smiles": "C/C=C\\C1=C(C(=O)O)N2C(=O)[C@@H](NC(=O)/C(=N\\O)c3csc(N)n3)[C@H]2SC1", "note": "[Compound 29, 7β-[(Z)-2-(2-aminothiazol-4-yl)-2-(hydroxyimino)acetamido]-3-[(Z)-prop-1-en-1-yl]-3-cephem-4-carboxylic acid]", "values": [{"measurement": "MIC", "setting": "[1]", "result": 0.4, "unit": "µg/mL"}, {"measurement": "MIC", "setting": "[2]; (GM) of the Citrobacter freundii strains, read-out: Geometric mean of MIC", "result": 1.7, "unit": "µg/mL"}, {"measurement": "MIC", "setting": "[2]; strain A21312, read-out: MIC", "result": "> 50", "unit": "µg/mL"}, {"measurement": "MIC", "setting": "[2]; strain A22140, read-out: MIC", "result": 1.6, "unit": "µg/mL"}, {"measurement": "MIC", "setting": "[2]; strain A22141, read-out: MIC", "result": 1.6, "unit": "µg/mL"}, {"measurement": "MIC", "setting": "[2]; strain A22142, read-out: MIC", "result": 0.8, "unit": "µg/mL"}, {"measurement": "MIC", "setting": "[2]; strain A22160, read-out: MIC", "result": 0.8, "unit": "µg/mL"}, {"measurement": "MIC", "setting": "[2]; strain A22161, read-out: MIC", "result": 0.8, "unit": "µg/mL"}, {"measurement": "MIC", "setting": "[2]; strain A22166, read-out: MIC", "result": 0.8, "unit": "µg/mL"}, {"measurement": "MIC", "setting": "[2]; strain A22175, read-out: MIC", "result": 0.8, "unit": "µg/mL"}, {"measurement": "MIC", "setting": "[2]; strain A22176, read-out: MIC", "result": 0.8, "unit": "µg/mL"}, {"measurement": "MIC", "setting": "[2]; strain A22177, read-out: MIC", "result": 3.1, "unit": "µg/mL"}, {"measurement": "MIC", "setting": "[3]; (GM) of the Morganella morganii strains, read-out: Geometric mean of MIC", "result": 6.3, "unit": "µg/mL"}, {"measurement": "MIC", "setting": "[3]; IFO3843, strain IFO 3843 MS-1, read-out: MIC", "result": 1.6, "unit": "µg/mL"}, {"measurement": "MIC", "setting": "[3]; strain A 9636, read-out: MIC", "result": "> 50", "unit": "µg/mL"}, {"measurement": "MIC", "setting": "[3]; strain A20455, read-out: MIC", "result": 1.6, "unit": "µg/mL"}, {"measurement": "MIC", "setting": "[4]; (GM) of the Enterobacter aerogenes strains, read-out: Geometric mean of MIC", "result": 4.9, "unit": "µg/mL"}, {"measurement": "MIC", "setting": "[4]; strain A20940, read-out: MIC", "result": "> 50", "unit": "µg/mL"}, {"measurement": "MIC", "setting": "[4]; strain A20941, read-out: MIC", "result": 1.6, "unit": "µg/mL"}, {"measurement": "MIC", "setting": "[4]; strain A20943, read-out: MIC", "result": 0.8, "unit": "µg/mL"}, {"measurement": "MIC", "setting": "[4]; strain A20958, read-out: MIC", "result": 6.3, "unit": "µg/mL"}, {"measurement": "MIC", "setting": "[4]; strain A20961, read-out: MIC", "result": 3.1, "unit": "µg/mL"}, {"measurement": "MIC", "setting": "[4]; strain A20966, read-out: MIC", "result": 6.3, "unit": "µg/mL"}, {"measurement": "MIC", "setting": "[4]; strain A20971, read-out: MIC", "result": 1.6, "unit": "µg/mL"}, {"measurement": "MIC", "setting": "[4]; strain A20985, read-out: MIC", "result": "> 50", "unit": "µg/mL"}, {"measurement": "MIC", "setting": "[4]; strain A20994, read-out: MIC", "result": 6.3, "unit": "µg/mL"}, {"measurement": "MIC", "setting": "[4]; strain A20996, read-out: MIC", "result": 0.8, "unit": "µg/mL"}, {"measurement": "MIC", "setting": "[4]; strain A21013, read-out: MIC", "result": 3.1, "unit": "µg/mL"}, {"measurement": "MIC", "setting": "[4]; strain A21036, read-out: MIC", "result": "> 50", "unit": "µg/mL"}, {"measurement": "MIC", "setting": "[4]; strain A21037, read-out: MIC", "result": 0.4, "unit": "µg/mL"}, {"measurement": "MIC", "setting": "[4]; strain A21038, read-out: MIC", "result": 0.8, "unit": "µg/mL"}, {"measurement": "MIC", "setting": "[4]; strain A21039, read-out: MIC", "result": 6.3, "unit": "µg/mL"}, {"measurement": "MIC", "setting": "[4]; strain A21043, read-out: MIC", "result": 12.5, "unit": "µg/mL"}, {"measurement": "MIC", "setting": "[4]; strain A21044, read-out: MIC", "result": 25, "unit": "µg/mL"}, {"measurement": "MIC", "setting": "[4]; strain A21118, read-out: MIC", "result": 50, "unit": "µg/mL"}, {"measurement": "MIC", "setting": "[4]; strain A21120, read-out: MIC", "result": 6.3, "unit": "µg/mL"}, {"measurement": "MIC", "setting": "[4]; strain A21130-1, read-out: MIC", "result": 6.3, "unit": "µg/mL"}, {"measurement": "MIC", "setting": "[4]; strain A21131, read-out: MIC", "result": 0.8, "unit": "µg/mL"}, {"measurement": "MIC", "setting": "[4]; strain A21152, read-out: MIC", "result": 0.8, "unit": "µg/mL"}, {"measurement": "MIC", "setting": "[4]; strain A21155, read-out: MIC", "result": 3.1, "unit": "µg/mL"}, {"measurement": "MIC", "setting": "[4]; strain A21158, read-out: MIC", "result": 6.3, "unit": "µg/mL"}, {"measurement": "MIC", "setting": "[4]; strain A21503, read-out: MIC", "result": 3.1, "unit": "µg/mL"}, {"measurement": "MIC", "setting": "[5]; (GM) of the Enterobacter cloacae strains, read-out: Geometric mean of MIC", "result": 17, "unit": "µg/mL"}, {"measurement": "MIC", "setting": "[5]; strain A 9655, read-out: MIC", "result": 50, "unit": "µg/mL"}, {"measurement": "MIC", "setting": "[5]; strain A 9659, read-out: MIC", "result": "> 50", "unit": "µg/mL"}, {"measurement": "MIC", "setting": "[5]; strain A20344, read-out: MIC", "result": "> 50", "unit": "µg/mL"}, {"measurement": "MIC", "setting": "[5]; strain A20364, read-out: MIC", "result": 3.1, "unit": "µg/mL"}, {"measurement": "MIC", "setting": "[5]; strain A20464, read-out: MIC", "result": 3.1, "unit": "µg/mL"}, {"measurement": "MIC", "setting": "[5]; strain A20650, read-out: MIC", "result": 0.8, "unit": "µg/mL"}, {"measurement": "MIC", "setting": "[5]; strain A22551, read-out: MIC", "result": "> 50", "unit": "µg/mL"}, {"measurement": "MIC", "setting": "[6]; (GM) of the Serratia species strains, read-out: Geometric mean of MIC", "result": 44, "unit": "µg/mL"}, {"measurement": "MIC", "setting": "[6]; strain 6-330, read-out: MIC", "result": 3.1, "unit": "µg/mL"}]}
